# Experimental data reported in patent publication US10961202B2, “Bis-benzimidazole compounds and methods of using the same” (THE SCRIPPS RESEARCH INSTITUTE, priority 2017, dated 2021).
# Tested on: r(CUG)12-MBNL1 complex
# Assay: Inhibition of the r(CUG)12-MBNL1 complex measured by TR-FRET
# Assay type: biochemical
# Conditions: Table M; 80 nM RNA, 60 nM MBNL1-His6
row,SMILES,IC50 [µM]
1,"CN(C)CCCOc1ccc2nc(-c3ccc(-c4nc5ccc(OCCCC(F)(F)F)cc5[nH]4)cc3)[nH]c2c1 [Compound 240, N,N-dimethyl-3-((2-(4-(6-(4,4,4-trifluorobutoxy)-1H-benzo[d]imidazol-2-yl)phenyl)-1H-benzo[d]imidazol-6-yl)oxy)propan-1-amine]",71.5
2,"CN(C)CCCOc1ccc2nc(-c3ccc(-c4nc5ccc(OCCCC#N)cc5[nH]4)cc3)[nH]c2c1 [Compound 241, 4-((2-(4-(6-(3-(dimethylamino)propoxy)-1H-benzo[d]imidazol-2-yl)phenyl)-1H-benzo[d]imidazol-6-yl)oxy)butanenitrile]",64.7
3,CN(C)Cc1ccc(Oc2ccc3nc(-c4ccc(-c5nc6ccc(Oc7ccc(CN(C)C)cc7)cc6[nH]5)cc4)[nH]c3c2)cc1 [Compound 242],47.7
4,CN(C)Cc1cccc(Oc2ccc3nc(-c4ccc(-c5nc6ccc(Oc7cccc(CN(C)C)c7)cc6[nH]5)cc4)[nH]c3c2)c1 [Compound 243],> 200
5,"CN(C)C/C=C\COc1ccc2nc(-c3ccc(-c4nc5ccc(OC/C=C\CN(C)C)cc5[nH]4)cc3)[nH]c2c1 [Compound 244, (2Z,2′Z)-4,4′-((2,2′-(1,4-phenylene)bis(1H-benzo[d]imidazole-6,2-diyl))bis(oxy))bis(N,N-dimethylbut-2-en-1-amine)]",23.5
6,"COc1ccc2nc(-c3ccc(-c4nc5ccc(OCCCN(C)C)cc5[nH]4)cc3)[nH]c2c1 [Compound 245, 3-((2-(4-(6-methoxy-1H-benzo[d]imidazol-2-yl)phenyl)-1H-benzo[d]imidazol-6-yl)oxy)-N,N-dimethylpropan-1-amine]",83.8
7,CN(C)CCCOc1ccc2nc(-c3ccc(-c4nc5ccccc5[nH]4)cc3)[nH]c2c1 [Compound 246],> 200
8,CN(C)Cc1cn(-c2ccc3nc(-c4ccc(-c5nc6ccc(-n7cc(CN(C)C)nn7)cc6[nH]5)cc4)[nH]c3c2)nn1 [Compound 247],6.8
9,"CN(C)CCCOc1ccc2nc(-c3ccc(-c4nc5ccc(OCCCC(=O)O)cc5[nH]4)cc3)[nH]c2c1 [Compound 248, 4-((2-(4-(5-(3-(dimethylamino)propoxy)-1H-benzo[d]imidazol-2-yl)phenyl)-1H-benzo[d]imidazol-5-yl)oxy)butanoic acid]",> 200
10,CN(C)CCCOc1ccc2nc(-c3ccc(-c4nc5ccc(O)cc5[nH]4)cc3)[nH]c2c1 [Compound 249],52.6
11,"CN(C)CCCOc1ccc2nc(-c3ccc(-c4nc5ccc(C(=O)O)cc5[nH]4)cc3)[nH]c2c1 [Compound 250, 2-(4-(6-(3-(dimethylamino)propoxy)-1H-benzo[d]imidazol-2-yl)phenyl)-1H-benzo[d]imidazole-6-carboxylic acid]",> 200
12,"CN(C)CCn1cc(-c2ccc3nc(-c4ccc(-c5nc6ccc(-c7cn(CCN(C)C)nn7)cc6[nH]5)cc4)[nH]c3c2)nn1 [Compound 251, 2,2′-(4,4′-(2,2′-(1,4-phenylene)bis(1H-benzo[d]imidazole-6,2-diyl))bis(1H-1,2,3-triazole-4,1-diyl))bis(N,N-dimethylethanamine)]",112
13,"CN(C)CCCOc1ccc2nc(-c3cccc(-c4nc5ccc(OCCCN(C)C)cc5[nH]4)c3)[nH]c2c1 [Compound 253, 3,3′-((1,3-phenylenebis(1H-benzo[d]imidazole-2,6-diyl))bis(oxy))bis(N,N-dimethylpropan-1-amine)]",> 200
14,"CN(C)CCCOc1ccc2nc(-c3ccc(-c4nc5ccc(C(=O)OC(C)(C)C)cc5[nH]4)cc3)[nH]c2c1 [Compound 254, tert-butyl 2-(4-(6-(3-(dimethylamino)propoxy)-1H-benzo[d]imidazol-2-yl)phenyl)-1H-benzo[d]imidazole-6-carboxylate]",> 200
15,COCCOCCOc1cc(-c2nc3ccc(OCCCN(C)C)cc3[nH]2)ccc1-c1nc2ccc(OCCCN(C)C)cc2[nH]1 [Compound 260],37.5
16,OCCOc1cc(-c2nc3ccc(O)cc3[nH]2)ccc1-c1nc2ccc(O)cc2[nH]1 [Compound 261],74.1
17,"COCCOc1cc(-c2nc3cc(OCCCN(C)C)ccc3[nH]2)c(OC)cc1-c1nc2ccc(OCCCN(C)C)cc2[nH]1 [Compound 262, 3-((2-(4-(6-(3-(dimethylamino)propoxy)-1H-benzo[d]imidazol-2-yl)-2-methoxy-5-(2-methoxyethoxy)phenyl)-1H-benzo[d]imidazol-5-yl)oxy)-N,N-dimethylpropan-1-amine]",55.5
18,"CN(C)CCCOc1ccc2nc(-c3ccc(-c4nc5ccc(OCCCN(C)C)cc5[nH]4)c(OCCN(C)C)c3)[nH]c2c1 [Compound 263, 3,3′-((2,2′-(2-(2-(dimethylamino)ethoxy)-1,4-phenylene)bis(1H-benzo[d]imidazole-6,2-diyl))bis(oxy))bis(N,N-dimethylpropan-1-amine)]",45.6
19,"Cc1cc(-c2nc3ccc(OCCCN(C)C)cc3[nH]2)c(C)cc1-c1nc2ccc(OCCCN(C)C)cc2[nH]1 [Compound 271, (3-[[2-(4-[6-[3-(dimethylamino)propoxy]-1H-1,3-benzodiazol-2-yl]-2,5-dimethylphenyl)-1H-1,3-benzodiazol-6-yl]oxy]propyl)dimethylamine]",> 200
20,Cc1cc(-c2nc3ccc(OCCCN(C)C)cc3[nH]2)ccc1-c1nc2ccc(OCCCN(C)C)cc2[nH]1 [Compound 272],95.2
21,CN(C)CCCOc1ccc2nc(-c3ccc(-c4nc5ccc(OCCCN(C)C)c(F)c5[nH]4)cc3)[nH]c2c1F [Compound 280],31.3
22,FC(F)(F)CCCOc1ccc2nc(-c3ccc(-c4nc5ccc(OCCCC(F)(F)F)cc5[nH]4)cc3)[nH]c2c1 [Compound 281],> 200

row,SMILES,IC50 [µM]
1,"CN(C)C(C)(C)CCOc1ccc2nc(-c3ccc(-c4nc5ccc(OCCC(C)(C)N(C)C)cc5[nH]4)cc3)[nH]c2c1 [Compound 282, 4,4′-((1,4-phenylenebis(1H-benzo[d]imidazole-2,6-diyl))bis(oxy))bis(N,N,2-trimethylbutan-2-amine)]",179
2,"CN(C)CCNC(=O)COc1ccc2nc(-c3ccc(-c4nc5ccc(OCC(=O)NCCN(C)C)cc5[nH]4)cc3)[nH]c2c1 [Compound 284, 2,2′-((1,4-phenylenebis(1H-benzo[d]imidazole-2,6-diyl))bis(oxy))bis(N-(2-(dimethylamino)ethyl)acetamide)]",24.1
3,"CN(C)CCNC(=O)CSc1ccc2nc(-c3ccc(-c4nc5ccc(SCC(=O)NCCN(C)C)cc5[nH]4)cc3)[nH]c2c1 [Compound 285, N-[2-(dimethylamino)ethyl]-2-[[2-(4-[6-[([[2-(dimethylamino)ethyl]carbamoyl]methyl)sulfanyl]-1H-1,3-benzodiazol-2-yl]phenyl)-1H-1,3-benzodiazol-6-yl]sulfanyl]acetamide]",> 200
4,CN(C)CCCOc1cc(F)cc2nc(-c3ccc(-c4nc5cc(F)cc(OCCCN(C)C)c5[nH]4)cc3)[nH]c12 [Compound 287],8.6
5,"CN(C)CCCOc1ccc2nc(-c3ccc(-c4nc5ccc(OCCCN(C)C)cc5[nH]4)c([N+](=O)[O-])c3)[nH]c2c1 [Compound 288, 3,3′-(((2-nitro-1,4-phenylene)bis(1H-benzo[d]imidazole-2,6-diyl))bis(oxy))bis(N,N-dimethylpropan-1-amine)]",42.6
6,N#CCCCOc1ccc2nc(-c3ccc(-c4nc5ccc(OCCCC#N)cc5[nH]4)cc3)[nH]c2c1 [Compound 289],> 200
7,"CN(C)CCCOc1ccc2nc(-c3ccc(-c4nc5ccc(OCCCN(C)C)cc5[nH]4)c(N)c3)[nH]c2c1 [Compound 291, 3,3′-(((2-amino-1,4-phenylene)bis(1H-benzo[d]imidazole-2,6-diyl))bis(oxy))bis(N,N-dimethylpropan-1-amine)]",61.5
8,CN(C)CCCOc1ccc2nc(-c3ccc(-c4nc5ccc(OCCCN(C)C)cc5[nH]4)nn3)[nH]c2c1 [Compound 292],14
9,"CN(C)CCCOc1ccc2nc(-c3ccc(-c4nc5ccc(OCCCN(C)C)cc5[nH]4)c(Br)c3)[nH]c2c1 [Compound 294, 3,3′-(2,2′-(2-bromo-1,4-phenylene)bis(3H-benzo[d]imidazole-5,2-diyl))bis(oxy)bis(N,N-dimethylpropan-1-amine)]",18.4
10,c1cc2nc(-c3ccc(-c4nc5ccc(OCCCN6CCCC6)cc5[nH]4)cc3)[nH]c2cc1OCCCN1CCCC1 [Compound 295],69.9
11,CN(C)CCCOc1ccc2nc(-c3cc(F)c(-c4nc5ccc(OCCCN(C)C)cc5[nH]4)cc3F)[nH]c2c1 [Compound 296],8.4
12,"COc1c(-c2nc3ccc(SCCCN(C)C)cc3[nH]2)ccc(-c2nc3ccc(SCCCN(C)C)cc3[nH]2)c1OC [Compound 300, 3,3′-(((2,3-dimethoxy-1,4-phenylene)bis(1H-benzo[d]imidazole-2,6-diyl))bis(sulfanediyl))bis(N,N-dimethylpropan-1-amine)]",> 200
13,"COc1c(-c2nc3ccc(OCCCN(C)C)cc3[nH]2)ccc(-c2nc3ccc(OCCCN(C)C)cc3[nH]2)c1OC [Compound 303, 3,3′-(((2,3-dimethoxy-1,4-phenylene)bis(1H-benzo[d]imidazole-2,6-diyl))bis(oxy))bis(N,N-dimethylpropan-1-amine)]",> 200
14,CN(C)CCCOc1ccc2c(c1)nc(-c1ccc(-c3nc4cc(OCCCN(C)C)ccc4n3C)cc1)n2C [Compound 309],> 200
15,CN(C)CCCOc1ccc2nc(-c3ccc(-c4nc5ccc(OCCCN(C)C)cc5n4C)cc3)n(C)c2c1 [Compound 310],> 200
16,CN(C)CCCOc1ccc2c(c1)nc(-c1ccc(-c3nc4ccc(OCCCN(C)C)cc4n3C)cc1)n2C [Compound 311],> 200
17,CN(C)CCCOc1ccc2nc(-c3ccc(-c4nc5ccc(OCCCN(C)C)cc5n4C)cc3)[nH]c2c1 [Compound 312],> 200
18,CN(C)CCCOc1ccc2[nH]c(-c3ccc(-c4nc5cc(OCCCN(C)C)ccc5n4C)cc3)nc2c1 [Compound 313],> 200
19,CN(C)CCCOc1ccc2nc(-c3cnc(-c4nc5ccc(OCCCN(C)C)cc5[nH]4)nc3)[nH]c2c1 [Compound 317],21.4
20,CN(C)CCCOc1ccc2nc(-c3ccc(-c4nc5ccc(OCCCC(=O)NCCN(C)C)cc5[nH]4)cc3)[nH]c2c1 [Compound 318],> 200
21,CN(C)CCNC(=O)c1ccc2nc(-c3ccc(-c4nc5ccc(C(=O)O)cc5[nH]4)cc3)[nH]c2c1 [Compound 319],> 200
22,C#CCCNC(=O)CCCOc1ccc2[nH]c(-c3ccc(-c4nc5cc(OCCCN(C)C)ccc5[nH]4)cc3)nc2c1 [Compound 321],22.4
